US20170340698A1, “CYCLIC PEPTIDE SPECIFICALLY BINDING TO APOPTOTIC CELLS AND USE THEREOF” (KYUNGPOOK NATIONAL UNIVERSITY INDUSTRY-ACADEMIC COOPERATION …, priority 2014, published 2017)
Residues, ends and D or L forms follow the SMILES beside them.

Columns and labels:
[1] = system: SNU-16 stomach tumor xenografts; test: Anti-tumor treatment of mice: tumor volume, tumor weight, TUNEL staining; assay type: in vivo; settings: cisplatin 5 mg/kg i.p. once per week, cetuximab 1.5 mg/kg i.p. twice per week, two weeks; measured over three weeks
Description: Eight-week old female athymic (nu/nu) Balb/c mice were purchased from Orient laboratories (Seongnam, Korea) and were housed under specific-pathogen-free (SPF) conditions with laboratory chow and water ad libitum. Stomach tumor xenografts were established by subcutaneously injecting 1×10^7 SNU-16 cells in 100 ml saline into the right flank. Tumors were allowed to reach 50-60 mm^3 of volume before randomization and initiation of treatment. […] In the present experiment, a total of two rounds of anticancer drug treatment were conducted for two weeks. Changes in tumor size were measured using an automatic caliper over three weeks. Tumor volumes were calculated using the formula: volume=(length×width×height)/2. Tumor weights were measured after isolation of tumor mass.
To examine anti-tumor growth effect by cisplatin or cetuximab alone and in combination, tumor volumes and weights after the drug treatment were measured.

[2] = Stability of peptides in the serum (C18 reverse phase FPLC, MS); assay type: in vitro ADME, mice; settings: mouse serum
From the text: Peptide stability in the serum was examined by the same method referring to the following documents Yoo S A, Bae D G, Ryoo J W, Kim H R, Park G S, et al. (2005) Arginine-rich antivascular endothelial growth factor (anti-VEGF) hexapeptide inhibits collageninduced arthritis and VEGF-stimulated productions of TNF-alpha and IL-6 by human monocytes. J Immunol 174: 5846-5855. Blood from mice was collected, and then serum was collected by centrifugation at 4[…], followed by filtration through 0.22 um-pore filter. […] The flow rate was 0.3 ml/min, and analyzed by C18 reverse phase FPLC using a linear gradient of 20% from 0 to 100% using acetonitrile through a linear graduation of 20% (Vydac protein and peptide C18, 0.1% trifluoroacetate in water for equilibration, and 0.1% trifluoroacetate in acetonitrile for elution) (Life Technologies, Carlsbad, Calif.). […]
It was examined whether higher levels of imaging signals by the cyclic form of ApoPep-1 compared with those of the linear form of ApoPep-1 was due to the difference in serum stability of peptides. After incubation of the linear or cyclic form of ApoPep-1 with mouse serum up to 24 hours, the amount of the peptide remaining in the serum was analyzed. […]

| amount of peptide remaining in the serum (peak area) ([2]; 37 degrees, up to 24 hours) | presence of peptide in serum by MS after incubation ([2]; incubation for 24 hours, MS of FPLC peak) | SMILES | tumor volume compared with control group treated without drug [1] |
| --- | --- | --- | --- |
|  |  | N.N.[Cl][Pt][Cl] [cisplatin] | reduced tumor volumes |
| not significantly changed | stably present | N=C(N)NCCC[C@H](NC(=O)[C@@H]1CCCN1C(=O)[C@@H]1CCCN1C(=O)[C@H](CCCNC(=N)N)NC(=O)[C@H](CCC(N)=O)NC(=O)[C@@H](N)CS)C(=O)O [linear form of ApoPep-1, CQRPPR, reference compound] (H-CQRPPR-OH; N-terminus and C-terminus assumed) |  |
